Data: patent US9845322B2 (Hoffmann-La Roche Inc., priority 2016, dated 2017)

Test system: HBsAg secretion in HepG2.2.15 cells
Test: HBsAg assay (chemiluminescence immunoassay of secreted HBsAg in culture supernatant)
Assay type: cell-based, HBV
Conditions: HepG2.2.15 cells; concentration at which HBsAg secretion was reduced by 50% compared to the no drug control; read-out: IC50 (HBsAg assay)
Procedure, shortened: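 IC50 taken from dose-response curves as the concentration halving secreted HBsAg relative to DMSO control. Measured by chemiluminescence immunoassay of culture supernatant from constitutively HBV-expressing HepG2.2.15 cells, seeded at 1.5×10^4/well in duplicate and exposed to three-fold serial compound dilutions at 1% final DMSO.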

Row | Compound | IC50 [µM]
1 | CC1c2cnc(-c3ncccn3)nc2CCN1c1cc(F)c(F)c(OCC(N)=O)c1 (stereo not shown) [Example 66, 2-[2,3-difluoro-5-(5-methyl-2-pyrimidin-2-yl-7,8-dihydro-5H-pyrido[4,3-d]pyrimidin-6-yl)phenoxy]acetamide] | 0.168
2 | COCCOc1cc(N2CCc3nc(-c4ccccn4)ncc3C2C)cc(F)c1F (single isomer, unassigned; (+)) [Example 20, (+)-6-[3,4-difluoro-5-(2-methoxyethoxy)phenyl]-5-methyl-2-(2-pyridyl)-7,8-dihydro-5H-pyrido[4,3-d]pyrimidine] | 5.01
3 | COc1cc(N2CCc3nc(-c4ccccn4)ncc3C2C)cc(F)c1F (single isomer, unassigned; (+)) [Example 6, (+)-6-(3,4-difluoro-5-methoxy-phenyl)-5-methyl-2-(2-pyridyl)-7,8-dihydro-5H-pyrido[4,3-d]pyrimidine] | 8.07
4 | CCC1c2cnc(-c3ccccn3)nc2CCN1c1cc(F)c(F)c(OC)c1 (stereo not shown) [Example 9, 6-(3,4-difluoro-5-methoxy-phenyl)-5-ethyl-2-(2-pyridyl)-7,8-dihydro-5H-pyrido[4,3-d]pyrimidine] | 0.183
5 | COCCOc1cc(N2CCc3nc(-c4ccccn4)ncc3C2C)cc(F)c1F (stereo not shown) [Example 19, 6-[3,4-difluoro-5-(2-methoxyethoxy)phenyl]-5-methyl-2-(2-pyridyl)-7,8-dihydro-5H-pyrido[4,3-d]pyrimidine] | 0.042
6 | CC1c2cnc(-c3ncccn3)nc2CCN1c1cc(F)c(F)c(OCCCCCCN)c1 (single isomer, unassigned; (-)) [Example 60, (−)-6-[2,3-difluoro-5-(5-methyl-2-pyrimidin-2-yl-7,8-dihydro-5H-pyrido[4,3-d]pyrimidin-6-yl)phenoxy]hexan-1-amine] | 0.022

Same assay, conditions: Hepatitis B virus, HepG2.2.15, HepG2.2.15 cells; concentration at which HBsAg secretion was reduced by 50% compared to the no drug control; read-out: IC50 (HBsAg assay)

Row | Compound | IC50 [µM]
7 | CC1c2cnc(-c3ncccn3)nc2CCN1c1cc(F)cc(NS(C)(=O)=O)n1 (stereo not shown) [Example 212, N-[4-fluoro-6-(5-methyl-2-pyrimidin-2-yl-7,8-dihydro-5H-pyrido[4,3-d]pyrimidin-6-yl)-2-pyridyl]methanesulfonamide] | 0.837
8 | CC1c2cnc(-c3ncccn3)nc2CCN1c1cc(F)c(F)c(OCC2CSC2)c1 (stereo not shown) [Example 119, 6-[3,4-difluoro-5-(thietan-3-ylmethoxy)phenyl]-5-methyl-2-pyrimidin-2-yl-7,8-dihydro-5H-pyrido[4,3-d]pyrimidine] | 0.051
9 | CC1c2cnc(-c3ncccn3)nc2CCN1c1cc(F)c(F)c(OCCCCCCNC(=O)OC(C)(C)C)c1 (stereo not shown) [Example 58, tert-butyl N-[6-[2,3-difluoro-5-(5-methyl-2-pyrimidin-2-yl-7,8-dihydro-5H-pyrido[4,3-d]pyrimidin-6-yl)phenoxy]hexyl]carbamate] | 0.193
10 | COCCCNC(=O)c1cc(F)cc(N2CCc3nc(-c4ncccn4)ncc3C2C)c1 (stereo not shown) [Example 177, 3-fluoro-N-(3-methoxypropyl)-5-(5-methyl-2-pyrimidin-2-yl-7,8-dihydro-5H-pyrido[4,3-d]pyrimidin-6-yl)benzamide] | 0.29
11 | COC(=O)COc1cc(N2CCc3nc(-c4ccccn4)ncc3C2C)cc(F)c1F (stereo not shown) [Example 27, methyl 2-[2,3-difluoro-5-[5-methyl-2-(2-pyridyl)-7,8-dihydro-5H-pyrido[4,3-d]pyrimidin-6-yl]phenoxy]acetate] | 3.43
12 | CC1c2cnc(-c3ncccn3)nc2CCN1c1cc(F)cc(OC(F)(F)F)c1 (stereo not shown) [Example 133, 6-[3-fluoro-5-(trifluoromethoxy)phenyl]-5-methyl-2-pyrimidin-2-yl-7,8-dihydro-5H-pyrido[4,3-d]pyrimidine] | 1.76
13 | CC1c2cnc(-c3ccccn3)nc2CCN1c1cc(OCCCCCCC(N)=O)cc(F)n1 (stereo not shown) [Example 180, 7-[[2-fluoro-6-[5-methyl-2-(2-pyridyl)-7,8-dihydro-5H-pyrido[4,3-d]pyrimidin-6-yl]-4-pyridyl]oxy]heptanamide] | 0.027
14 | CC1c2cnc(-c3ncccn3)nc2CCN1c1cc(F)c(F)c(OCCCN)c1 (stereo not shown) [Example 91, 3-[2,3-difluoro-5-(5-methyl-2-pyrimidin-2-yl-7,8-dihydro-5H-pyrido[4,3-d]pyrimidin-6-yl)phenoxy]propan-1-amine] | 0.483
15 | CC1c2cnc(-c3ccccn3)nc2CCN1c1cc(F)c(F)c(OCCCN)c1 (stereo not shown) [Example 34, 3-[2,3-difluoro-5-[5-methyl-2-(2-pyridyl)-7,8-dihydro-5H-pyrido[4,3-d]pyrimidin-6-yl]phenoxy]propan-1-amine] | 1.71
16 | CC1c2cnc(-c3ncccn3)nc2CCN1c1cc(F)c(F)c(OCCC2CN(S(C)(=O)=O)C2)c1 (stereo not shown) [Example 118, 6-[3,4-difluoro-5-[2-(1-methylsulfonylazetidin-3-yl)ethoxy]phenyl]-5-methyl-2-pyrimidin-2-yl-7,8-dihydro-5H-pyrido[4,3-d]pyrimidine] | 0.013
17 | CC1c2cnc(-c3ncccn3)nc2CCN1c1cc(F)c(F)c(OCCCCCN)c1 (stereo not shown) [Example 57, 5-[2,3-difluoro-5-(5-methyl-2-pyrimidin-2-yl-7,8-dihydro-5H-pyrido[4,3-d]pyrimidin-6-yl)phenoxy]pentan-1-amine] | 0.11
18 | CC1c2cnc(-c3ncccn3)nc2CCN1c1cc(F)c(F)c(OCC2CCOCC2)c1 (stereo not shown) [Example 89, 6-[3,4-difluoro-5-(tetrahydropyran-4-ylmethoxy)phenyl]-5-methyl-2-pyrimidin-2-yl-7,8-dihydro-5H-pyrido[4,3-d]pyrimidine] | 0.021
19 | CC1c2cnc(-c3ncccn3)nc2CCN1c1cc(F)cc(C(F)(F)F)c1 (stereo not shown) [Example 81, 6-[3-fluoro-5-(trifluoromethyl)phenyl]-5-methyl-2-pyrimidin-2-yl-7,8-dihydro-5H-pyrido[4,3-d]pyrimidine] | 0.131
20 | COC(=O)CCCCOc1cc(N2CCc3nc(-c4ncccn4)ncc3C2C)cc(F)c1F (stereo not shown) [Example 62, methyl 5-[2,3-difluoro-5-(5-methyl-2-pyrimidin-2-yl-7,8-dihydro-5H-pyrido[4,3-d]pyrimidin-6-yl)phenoxy]pentanoate] | 0.494
21 | COc1c(Cl)c(F)cc(N2CCc3nc(-c4ncccn4)ncc3C2C)c1Cl (single isomer, unassigned; (+)) [Example 124, (+)-6-(2,4-dichloro-5-fluoro-3-methoxy-phenyl)-5-methyl-2-pyrimidin-2-yl-7,8-dihydro-5H-pyrido[4,3-d]pyrimidine] | 1.25
22 | CC1c2cnc(-c3ncccn3)nc2CCN1c1cc(F)c(F)c(OCCC2CN(C(=O)OC(C)(C)C)C2)c1 (stereo not shown) [Example 115, tert-butyl 3-[2-[2,3-difluoro-5-(5-methyl-2-pyrimidin-2-yl-7,8-dihydro-5H-pyrido[4,3-d]pyrimidin-6-yl)phenoxy]ethyl]azetidine-1-carboxylate] | 0.012
23 | CC1c2cnc(-c3ccccn3)nc2CCN1c1cc(OCCCOCC(N)=O)cc(F)n1 (stereo not shown) [Example 186] | 0.018
24 | CC1c2cnc(-c3ncccn3)nc2CCN1c1cc(OCCCCC(=O)O)cc(F)n1 (single isomer, unassigned; (-)) [Example 157, (−)-5-[[2-fluoro-6-[5-methyl-2-pyrimidin-2-yl-7,8-dihydro-5H-pyrido[4,3-d]pyrimidin-6-yl]-4-pyridyl]oxy]pentanoic acid] | 0.047
25 | CC1c2cnc(-c3ncccn3)nc2CCN1c1cc(OCC2CCOCC2)cc(F)n1 (stereo not shown) [Example 151, 6-[6-fluoro-4-(tetrahydropyran-4-ylmethoxy)-2-pyridyl]-5-methyl-2-pyrimidin-2-yl-7,8-dihydro-5H-pyrido[4,3-d]pyrimidine] | 0.012
